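All cell lines were grown in 96-well plates and treated with compound for 48 hours. The concentration for 50% growth inhibition is given as GI50. TGI: total growth inhibition.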
Assays:
Assay in all cases: growth of human tumour cells (NCI), 48 h
786-0 renal = system: 786-0 renal
BT-549 breast = system: BT-549 breast
HT29 colon = system: HT29 colon
RXF 393 renal = system: RXF 393 renal
SF-268 CNS = system: SF-268 CNS
SNB-19 CNS = system: SNB-19 CNS
EKVX NSCLC = system: EKVX NSCLC
OVCAR-5 ovarian = system: OVCAR-5 ovarian
DU-145 prostate = system: DU-145 prostate
CCRF-CEM leukemia = system: CCRF-CEM leukemia
UACC-257 melanoma = system: UACC-257 melanoma
SK-MEL-2 melanoma = system: SK-MEL-2 melanoma
KM12 colon = system: KM12 colon
SK-MEL-28 melanoma = system: SK-MEL-28 melanoma
NCI/ADR-RES ovarian = system: NCI/ADR-RES ovarian
MDA-MB-231 breast = system: MDA-MB-231 breast
HOP-92 NSCLC = system: HOP-92 NSCLC
A498 renal = system: A498 renal
PC-3 prostate = system: PC-3 prostate
MOLT-4 leukemia = system: MOLT-4 leukemia
RPMI-8226 leukemia = system: RPMI-8226 leukemia
MCF7 breast = system: MCF7 breast
MALME-3M melanoma = system: MALME-3M melanoma
HCT-116 colon = system: HCT-116 colon
OVCAR-4 ovarian = system: OVCAR-4 ovarian
SNB-75 CNS = system: SNB-75 CNS
SF-295 CNS = system: SF-295 CNS
HOP-62 NSCLC = system: HOP-62 NSCLC
OVCAR-8 ovarian = system: OVCAR-8 ovarian
MDA-MB-435 = system: MDA-MB-435
HS 578T breast = system: HS 578T breast
OVCAR-3 ovarian = system: OVCAR-3 ovarian
NCI-H226 lung = system: NCI-H226 lung
HCT-15 colon = system: HCT-15 colon
SK-MEL-5 melanoma = system: SK-MEL-5 melanoma
LOX IMVI melanoma = system: LOX IMVI melanoma
SW-620 colon = system: SW-620 colon
CAKI-1 renal = system: CAKI-1 renal
HL-60(TB) leukemia = system: HL-60(TB) leukemia
NCI-H23 lung = system: NCI-H23 lung
SF-539 CNS = system: SF-539 CNS
UO-31 renal = system: UO-31 renal
HCC-2998 colon = system: HCC-2998 colon
M14 melanoma = system: M14 melanoma
UACC-62 melanoma = system: UACC-62 melanoma
TK-10 renal = system: TK-10 renal
ACHN renal = system: ACHN renal
A549 NSCLC = system: A549 NSCLC
U251 CNS = system: U251 CNS
IGROV1 ovarian = system: IGROV1 ovarian
SN12C renal = system: SN12C renal
NCI-H460 lung = system: NCI-H460 lung
K-562 leukemia = system: K-562 leukemia
SK-OV-3 ovarian = system: SK-OV-3 ovarian
T-47D breast = system: T-47D breast
SR leukemia = system: SR leukemia
COLO 205 colon = system: COLO 205 colon
NCI-H522 lung = system: NCI-H522 lung

## NCCn1c(=O)[nH]c(=O)[nH]c1=S
786-0 renal
  GI50: > 100 µM
  TGI: > 100 µM
BT-549 breast
  GI50: > 100 µM
  TGI: > 100 µM
HT29 colon
  GI50: > 100 µM
  TGI: > 100 µM
RXF 393 renal
  GI50: > 100 µM
  TGI: > 100 µM
SF-268 CNS
  GI50: > 100 µM
  TGI: > 100 µM
SNB-19 CNS
  GI50: > 100 µM
  TGI: > 100 µM
EKVX NSCLC
  GI50: > 100 µM
  TGI: > 100 µM
OVCAR-5 ovarian
  GI50: > 100 µM
  TGI: > 100 µM
DU-145 prostate
  GI50: > 100 µM
  TGI: > 100 µM
CCRF-CEM leukemia
  GI50: > 100 µM
  TGI: > 100 µM
UACC-257 melanoma
  GI50: > 100 µM
  TGI: > 100 µM
SK-MEL-2 melanoma
  GI50: > 100 µM
  TGI: > 100 µM
KM12 colon
  GI50: > 100 µM
  TGI: > 100 µM
SK-MEL-28 melanoma
  GI50: > 100 µM
  TGI: > 100 µM
NCI/ADR-RES ovarian
  GI50: > 100 µM
  TGI: > 100 µM
MDA-MB-231 breast
  GI50: > 100 µM
  TGI: > 100 µM
HOP-92 NSCLC
  GI50: > 100 µM
  TGI: > 100 µM
A498 renal
  GI50: > 100 µM
  TGI: > 100 µM
PC-3 prostate
  GI50: > 100 µM
  TGI: > 100 µM
MOLT-4 leukemia
  GI50: > 100 µM
  TGI: > 100 µM
RPMI-8226 leukemia
  GI50: > 100 µM
  TGI: > 100 µM
MCF7 breast
  GI50: 61.1 µM
  TGI: > 100 µM
MALME-3M melanoma
  GI50: > 100 µM
  TGI: > 100 µM
HCT-116 colon
  GI50: > 100 µM
  TGI: > 100 µM
OVCAR-4 ovarian
  GI50: > 100 µM
  TGI: > 100 µM
SNB-75 CNS
  GI50: > 100 µM
  TGI: > 100 µM
SF-295 CNS
  GI50: > 100 µM
  TGI: > 100 µM
HOP-62 NSCLC
  GI50: > 100 µM
  TGI: > 100 µM
OVCAR-8 ovarian
  GI50: > 100 µM
  TGI: > 100 µM
MDA-MB-435
  GI50: > 100 µM
  TGI: > 100 µM
HS 578T breast
  GI50: > 100 µM
  TGI: > 100 µM
OVCAR-3 ovarian
  GI50: > 100 µM
  TGI: > 100 µM
NCI-H226 lung
  GI50: > 100 µM
  TGI: > 100 µM
HCT-15 colon
  GI50: 96.7 µM
  TGI: > 100 µM
SK-MEL-5 melanoma
  GI50: > 100 µM
  TGI: > 100 µM
LOX IMVI melanoma
  GI50: > 100 µM
  TGI: > 100 µM
SW-620 colon
  GI50: > 100 µM
  TGI: > 100 µM
CAKI-1 renal
  GI50: > 100 µM
  TGI: > 100 µM
HL-60(TB) leukemia
  GI50: > 100 µM
  TGI: > 100 µM
NCI-H23 lung
  GI50: > 100 µM
  TGI: > 100 µM
SF-539 CNS
  GI50: > 100 µM
  TGI: > 100 µM
UO-31 renal
  GI50: > 100 µM
  TGI: > 100 µM
HCC-2998 colon
  GI50: > 100 µM
  TGI: > 100 µM
M14 melanoma
  GI50: > 100 µM
  TGI: > 100 µM
UACC-62 melanoma
  GI50: > 100 µM
  TGI: > 100 µM
TK-10 renal
  GI50: > 100 µM
  TGI: > 100 µM
ACHN renal
  GI50: > 100 µM
  TGI: > 100 µM
A549 NSCLC
  GI50: > 100 µM
  TGI: > 100 µM
U251 CNS
  GI50: > 100 µM
  TGI: > 100 µM
IGROV1 ovarian
  GI50: > 100 µM
  TGI: > 100 µM
SN12C renal
  GI50: > 100 µM
  TGI: > 100 µM
NCI-H460 lung
  GI50: 39.2 µM
  TGI: > 100 µM
K-562 leukemia
  GI50: 54.1 µM
  TGI: > 100 µM
SK-OV-3 ovarian
  GI50: > 100 µM
  TGI: > 100 µM
T-47D breast
  GI50: > 100 µM
  TGI: > 100 µM
SR leukemia
  GI50: > 100 µM
  TGI: > 100 µM
COLO 205 colon
  GI50: > 100 µM
  TGI: > 100 µM
NCI-H522 lung
  GI50: > 100 µM
  TGI: > 100 µM

— PubChem BioAssay (NCI)
